Assays:
SMMC-7721 cells [1] = assay: Annexin V-FITC/PI dual staining assay; format: cell-based, human
Description: The apoptotic effect of compound 4b was further evaluated by a Annexin V-FITC/propidium iodide (AV/PI) dual staining assay to examine the occurrence of phosphatidylserine externalization, which facilitated the detection of live cells (lower left quadrant; AV−/PI−), early apoptotic cells (lower right quadrant; AV+/PI−), late apoptotic cells (upper right quadrant; AV+/PI+) and necrotic cells (upper left quadrant; AV−/PI+).
Apoptosis was discriminated with the Annexin V-FITC/PI dual staining assay. SMMC-7721 cells were seeded at 1 × 10^5 cells per well in 10% fetal calf serum (FBS)-DMEM into six-well plates, and treated with compound 4b for 24 h. The cells were washed twice with cold PBS and then resuspended in 1 × binding buffer (0.1 M Hepes/NaOH (pH 7.4), 1.4 M NaCl, 25 mM CaCl2) at a concentration of 1 × 10^6 cells/mL. The solution (100 μL) was transferred to 5 mL culture tubes, and 5 μL of Annexin V-FITC (BD, Pharmingen) and 5 μL of PI were added to each tube. The cells were gently vortexed, and incubated for 30 min at 25 °C in the dark. PBS (200 μL) was added to each tube. The analysis was performed on a flow cytometry (Becton-Dickinson FACSCalibur, New York, NY, USA).

SMMC-7721 cells [2] = assay: Hoechst 33258 staining assay; format: cell-based, human; conditions: SMMC-7721, 0.2, 1.0 and 5.0 μM, 24 h
Experimental: To investigate the morphological changes induced by compound 4b in SMMC-7721 cells, Hoechst staining was carried out. Hoechst 33258 is a cell membrane permeable dye, which stains the live cells’ nuclei uniformly as light-blue and apoptotic cells’ nuclei as round and bright-blue, on account of karyopyknosis and chromatin condensation. SMMC-7721 cells were treated with various concentrations (0, 0.2, 1.0 and 5.0 μM) of compound 4b for 24 h, and stained with Hoechst 33258.
Cells grown on a sterile cover slip in six-well plates were treated with different concentrations of the test compound for 24 h. The culture medium containing compounds was removed, and the cells were fixed in 4% paraformaldehyde for 10 min. After being washed twice with PBS, the cells were stained with 0.5 mL of Hoechst 33258 (Beyotime, Haimen, China) for 5 min, and then again washed twice with PBS. The stained nuclei were observed under a Nikon ECLIPSETE2000-S fluorescence microscope using 350 nm for excitation and 460 nm for emission.

SMMC-7721 cells [3] = assay: Cell cycle analysis (PI staining, flow cytometry); format: cell-based, human
Experimental: Subsequently, to determine the possible role of the cell cycle arrest in cell growth inhibition induced by target compounds, SMMC-7721 cells were treated with different concentrations of compound 4b. The cell cycle distribution was investigated by flow cytometric analysis after staining of DNA with propidium iodide (PI).
SMMC-7721 cells were treated with indicated concentrations of compound 4b. After incubation for 48 h, the cells were washed twice with ice-cold PBS, fixed and permeabilized with ice-cold 70% ethanol at −20 °C overnight. The cells were treated with 100 μg/mL RNase A at 37 °C for 30 min after being washed with ice-cold PBS, and finally stained with 400 μL of 1 mg/mL PI in the dark at 4 °C for 30 min. The samples were then analyzed for their DNA content by flow cytometry (Becton-Dickinson FACSCalibur, New York, NY, USA).

[4] = tested on: noncancerous human hepatocyte cells (LO2); assay: MTT cytotoxic assay, LO2; format: cell-based; conditions: 48 h exposure, noncancerous hepatocytes
Experimental: (§1) All the compounds (1–3, 4a–o) were evaluated for their in vitro cytotoxic activity against three cancer cell lines including human breast cancer cell line (MCF-7), human hepatocarcinoma cell line (SMMC-7721), human cervical carcinoma cell line (HeLa), and a noncancerous human hepatocyte cell line (LO2) using the MTT assay method. An anticancer drug etoposide (VP-16) was co-assayed as the positive control. The results of the test compounds shown as IC50 values (concentration required to inhibit tumor cell proliferation by 50%), are listed in Table 1.
(§2) The in vitro cytotoxic activities of the quinoxaline derivatives of DAA were evaluated against a human breast cancer cell line (MCF-7), human hepatocarcinoma cell line (SMMC-7721), human cervical carcinoma cell line (HeLa) and noncancerous human hepatocyte cells (LO2) via the MTT colorimetric method. Briefly, different tumor cells were grown in DMEM supplemented with 10% fetal bovine serum, penicillin (100 U/mL), and streptomycin (50 μg/mL). Cells were harvested at the log phase of growth and seeded in 96-well plates (100 μL/well at a density of 2 × 10^5 cells/mL). After 24 h of incubation at 37 °C and 5% CO2 to allow for cell attachment, cultures were exposed to various concentrations of the isolated compounds for 48 h. Finally, the MTT solution (2.5 mg/mL in PBS) was added (40 μL/well). Plates were further incubated for 4 h at 37 °C, and the formazan crystals formed were dissolved by adding 150 μL/well of DMSO. Absorption at 570 nm was measured with an ELISA plate reader. The results were expressed as IC50 values with standard deviations, which were defined as the concentrations at which a 50% survival of the cells was discerned. Etoposide (VP-16) was co-assayed as the positive control.

[5] = tested on: human hepatocarcinoma cell line (SMMC-7721); assay: MTT cytotoxic assay, SMMC-7721; format: cell-based; conditions: 48 h exposure
Experimental: as §1, §2

[6] = tested on: human cervical carcinoma cell line (HeLa); assay: MTT cytotoxic assay, HeLa; format: cell-based; conditions: 48 h exposure
Experimental: as §1, §2

[7] = tested on: human breast cancer cell line (MCF-7); assay: MTT cytotoxic assay, MCF-7; format: cell-based; conditions: MCF7, 48 h exposure
Experimental: as §1, §2

For `CCN(CC)Cc1nc2c(Br)cc3c(c2nc1CN(CC)CC)CCC1[C@](C)(C(=O)OC)CCC[C@]31C` (stereo partly shown) [Compound 4b, Methyl 12-bromo-2′,3′-bis((diethylamino)methyl)-13,14-pyrazinyldeisopropyl-dehydroabietate], the “percentage of early apoptotic cells (AV+/PI−)” value (SMMC-7721 cells [1]; SMMC-7721, 5.0 μM, 24 h (control 2.84 ± 0.26%)) was 17.44 ± 0.68%, the “percentage of late apoptotic cells (AV+/PI+)” value (SMMC-7721 cells [1]; SMMC-7721, 5.0 μM, 24 h (control 7.45 ± 0.42%)) was 52.36 ± 1.23% and the “apoptotic cells (early + late)” value (SMMC-7721 cells [1]; SMMC-7721, 5.0 μM, 24 h (control 10.29%)) was 69.80%. The “induction of apoptosis (Annexin V-FITC/PI)” value (SMMC-7721 cells [1]; SMMC-7721, 24 h) was “induce the apoptosis of SMMC-7721 cells in a dose-dependent manner”, the “nuclear morphological changes / apoptosis (Hoechst 33258)” value (SMMC-7721 cells [2]) was “induce apoptosis of SMMC-7721 cells in a dose-dependent manner” and the cell cycle arrest (SMMC-7721 cells [3]; SMMC-7721, 1.0-10.0 μM, 48 h) was “arrest SMMC-7721 cells in the G0/G1 stage”. It also gave a G2/M phase cells (SMMC-7721 cells [3]; SMMC-7721, 48 h, end of the range 0-10.0 μM (control 10.42 ± 0.68%)) of 18.13 ± 0.13%, a S phase cells (SMMC-7721 cells [3]; SMMC-7721, 48 h, end of the range 0-10.0 μM (control 32.24 ± 0.21%)) of 8.54 ± 0.57% and a G0/G1 phase cells (SMMC-7721 cells [3]; SMMC-7721, 48 h, end of the range 0-10.0 μM (control 57.34 ± 0.48%)) of 73.33 ± 0.69%. For the same compound, the IC50 [4] was 11.1 ± 0.57 µM, the IC50 [5] was 0.72 ± 0.09 µM and the IC50 [6] was 1.08 ± 0.12 µM. It also gave an IC50 [7] of 1.78 ± 0.36 µM.
